Measured values: US7030158B2, “Therapeutic compounds” (Ardenia Investments Ltd., priority 2002, dated 2006)

Tests used:
rats = details: rat, in vivo, ip, 100 mg/kg
Description: A single dose i.p. toxicity study in rats was carried out. […] The minimal lethal dose is thus above 100 mg/kg body weight for these compounds.

[1] = tested on: Human Breast Adenocarcinoma Cell Line MDA-MB-231; experiment: Drug cytotoxicity testing (viable cell count, trypan blue exclusion) in MDA-MB-231 cultures; format: cell-based; details: for Tumor Cell Number: compound or drug alone 10^−7 mol/L (100 nM), medium with 5% FBS
Description: MDA-MB-231 cells were propagated in MEM culture medium with 2 mM L-glutamine, 10% heat-inactivated fetal bovine serum (FBS) and antibiotics. DU 145 cells were cultured in MEM culture medium containing 2 mM L-glutamine, 1 mM sodium pyruvate, 10% FBS and antibiotics. SKOV-3 cells were cultured in McCoy's 5A culture medium, supplemented with 1,5 mM L-glutamine, 10% FBS and antibiotics. A549 cells were cultured in Ham's F-12 culture medium with 1 mM L-glutamine, 10% FBS and antibiotics.
The cell cultures in cultivation plates were allowed to adhere for 24 hour of incubation. […] The cells were incubated for 2 consecutive days. At the end of the incubation period adherent cells were detached by trypsinization and the number of viable cells was counted using trypan blue exclusion test and a hemocytometer. All data were derived from an average of three determinations each in six replicates. The results were expressed as mean cell number±SE and the differences between control and test series evaluated by means of Student's t-test. The drug cytotoxicity was evaluated based on the extent of cell growth inhibition.
Therefore an average of negative controls was calculated. […] Therefore an average of positive controls was calculated (for each antibiotic).

SMILES | mortality (rats) | Tumor Cell Number [1] | also measured
CC1=C(/C=C/C(C)=C/C=C/C(C)=C/C(=O)N[C@@H](CS(=O)(=O)O)C(=O)O)C(C)(C)CCC1 [I-1, N-(all-trans-Retinoyl)-L-cysteic acid] | did not produce mortality | – | –
CC1=C(/C=C/C(C)=C/C=C/C(C)=C\C(=O)N[C@@H](CS(=O)(=O)O)C(=O)OC(C)C)C(C)(C)CCC1 [II-1c] | – | 29.0 ± 1.26 × 10^3 | –
CCCCOC(=O)[C@H](CS(=O)(=O)O)NC(=O)\C=C(C)/C=C/C=C(C)/C=C/C1=C(C)CCCC1(C)C [II-1e] | – | (26.0 ± 1.27) × 10^3, cell growth inhibition | –
CC1=C(/C=C/C(C)=C/C=C/C(C)=C\C(=O)N[C@@H](CCS(=O)(=O)O)C(=O)O)C(C)(C)CCC1 [II-3, N-(13-cis-Retinoyl)-L-homocysteic acid] | did not produce mortality | – | –
COC(=O)[C@H](CCS(=O)(=O)O)NC(=O)/C=C(C)/C=C/C=C(C)/C=C/C1=C(C)CCCC1(C)C [I-3a] | – | – | cell growth inhibition achieved when increasing the concentration ([1]; compound (sodium salt) alone, concentration range 10^−9 to 10^−7 M, listed as II-3a): ~49%
CC1=C(/C=C/C(C)=C/C=C/C(C)=C/C(=O)N[C@@H](CS(=O)O)C(=O)O)C(C)(C)CCC1 (stereo in doubt) [I-2, N-(all-trans-Retinoyl)-L-cysteinesulfinic acid] | did not produce mortality | – | –
